Where two headings read alike, the source gives them in different places.
Assays:
HaCaT cells = assay: Cell viability assay (resazurin), cytotoxicity in non-malignant cells; assay type: cell-based, human; details: Homo sapiens, HaCaT, read-out: IC50 HaCaT (Non-malignant keratinocyte)
Procedure: (§1) Cells were grown in Dulbecco's Modified Eagle's Medium (DMEM) supplemented with 100 U/mL penicillin, 100 µg/mL streptomycin and 10% fetal bovine serum. HL60 cell line (acute myeloid leukaemia, AML) was obtained from ATCC. It was cultured in IMDM medium supplemented with 100 U/mL penicillin, 100 µg/mL streptomycin and 10% fetal bovine serum. U937 (AML) and Jurkat cells (ALL) were obtained from DMSZ, Braunschweig, Germany, and ATCC, respectively. They were cultivated in RPMI medium, supplemented with 100 U/mL penicillin, 100 µg/mL streptomycin and 10% fetal bovine serum. […] All cell lines were cultured at 37 ° C with 5% CO2 in a humidified incubator. Cell culture reagents were purchased from Biowest. Exponentially growing cells (3000-6000 cells per well) were seeded in 96-well plates. After 24 hours, cells were treated with the drugs for 72 hours. The cell viability was then estimated with the resazurin assay, a colorimetric technique based on the capability of viable cells to reduce the blue reagent resazurin to the pink-soluble product resorufin. The amount of resorufin produced is proportional to the number of viable cells. Briefly, cells were washed once with phosphate buffered saline (PBS) and 150 µL resazurin (20 µg/mL in medium) was added to each well. The plates were incubated for 3 hours at 37 °C, 5% CO2, and finally optical densities were measured at 540 and 620 nm with a multiwell plate spectrophotometer reader (Multiskan EX Labsystems). Cell viability was calculated as a percentage compared to non-treated cells. The results were expressed as the means ± standard error of the mean (SEM). All data are from at least three independent experiments.

[1] = system: A549 (human lung adenocarcinoma cells); assay: Cell viability assay (resazurin), cytotoxic activity against solid tumours; assay type: cell-based; details: for IC50: Homo sapiens, read-out: IC50 A549 (Lung adenocarcino ma); for S.I. A549 (Selectivity Index): IC50 HaCaT divided by IC50 A549, mean of independent experiments
Procedure: as §1, with “The plates were incubated for 3 hours at 37 °C, 5% CO2, and finally optical densities were measured at 540 and 620 nm with a multiwell plate spectrophotometer reader (Multiskan EX Labsystems).” left out, “experiments. The selectivity index (S.I.) values were calculated over each cancer cell line as the mean of the IC50 value in the non-malignant cell line (HaCaT) by the IC50 in the respective cancer cell line obtained in each independent experiment.” for “experiments.”

[2] = system: MeWo (human melanoma cells); assay: as above; assay type: cell-based; details: for IC50: Homo sapiens, MeWo, read-out: IC50 MeWo (Melanoma; BRAF WT); for S.I. MeWo (Selectivity Index): IC50 HaCaT divided by IC50 MeWo, mean of independent experiments
Procedure: as §1, with “The plates were incubated for 3 hours at 37 °C, 5% CO2, and finally optical densities were measured at 540 and 620 nm with a multiwell plate spectrophotometer reader (Multiskan EX Labsystems).” left out, “experiments. The selectivity index (S.I.) values were calculated over each cancer cell line as the mean of the IC50 value in the non-malignant cell line (HaCaT) by the IC50 in the respective cancer cell line obtained in each independent experiment.” for “experiments.”

[3] = system: T24 (human bladder cancer cells); assay: as above; assay type: cell-based; details: for IC50: Homo sapiens, read-out: IC50 T24 (Bladder cancer); for S.I. T24 (Selectivity Index): IC50 HaCaT divided by IC50 T24, mean of independent experiments
Procedure: as §1, with “The plates were incubated for 3 hours at 37 °C, 5% CO2, and finally optical densities were measured at 540 and 620 nm with a multiwell plate spectrophotometer reader (Multiskan EX Labsystems).” left out, “experiments. The selectivity index (S.I.) values were calculated over each cancer cell line as the mean of the IC50 value in the non-malignant cell line (HaCaT) by the IC50 in the respective cancer cell line obtained in each independent experiment.” for “experiments.”

[4] = system: HL60 (Acute myeloid leukaemia); assay: Antileukemic activity, cell viability (CCK-8 Cell Counting Kit); assay type: cell-based; details: Homo sapiens, HL-60; 18 h incubation, compounds 0 - 100 µM; read-out: IC50 Cancer cells HL60 (Acute myeloid leukaemia)
Procedure: (§2) HaCaT cells (human keratinocytes, reference control), A549 (human lung adenocarcinoma cells), MeWo (human melanoma cells) and T24 (human bladder cancer cells) were purchased from Cell Lines Service (CLS). Cells were grown in Dulbecco's Modified Eagle's Medium (DMEM) supplemented with 100 U/mL penicillin, 100 µg/mL streptomycin and 10% fetal bovine serum. HL60 cell line (acute myeloid leukaemia, AML) was obtained from ATCC. It was cultured in IMDM medium supplemented with 100 U/mL penicillin, 100 µg/mL streptomycin and 10% fetal bovine serum. U937 (AML) and Jurkat cells (ALL) were obtained from DMSZ, Braunschweig, Germany, and ATCC, respectively. They were cultivated in RPMI medium, supplemented with 100 U/mL penicillin, 100 µg/mL streptomycin and 10% fetal bovine serum. OPM-2 cell line (MM), was obtained from DMSZ, Braunschweig, Germany and cultured in RPMI medium supplemented with 100 U/mL penicillin, 100 µg/mL streptomycin, 10% fetal bovine serum and 1X GlutaMAXTM. All cell lines were cultured at 37 ° C with 5% CO2 in a humidified incubator. Cell culture reagents were purchased from Biowest.
(§3) For the leukemic cell lines, the CCK-8 Cell Counting Kit (Dojindo Molecular Technologies) was used according to manufacturers instructions. Briefly, 50.000 cells were seeded in each well of a 96 well plate, and they were treated with increased amounts (0 - 100 µM) of each of the compounds, and incubated for 18 h at 37 °C, 5% CO2. After this period, 7 µl of the CCK-8 reagent were added to each well, and cells were further incubated for 2 h at 37 °C, 5% CO2. OD at 450 nm was obtained using a MultiskanTM GO microplate reader (Thermo Fisher Scientific, Waltham, MA, EE.UU). Cell viability in each condition was normalized to the measurement obtained in the non treated samples (100%), and were represented as average ± standard error of the mean (SEM).

[5] = system: Jurkat (Acute lymphoblastic leukaemia); assay: as above; assay type: cell-based; details: Homo sapiens, 18 h incubation, compounds 0 - 100 µM, read-out: IC50 Cancer cells Jurkat (Acute lymphoblastic leukaemia)
Procedure: as §2, §3

OPM-2 (Multiple myeloma) = assay: as above; assay type: cell-based; details: Homo sapiens, 18 h incubation, compounds 0 - 100 µM, read-out: IC50 Cancer cells OPM-2 (Multiple myeloma)
Procedure: as §2, §3

[6] = system: U937 (Acute myeloid leukaemia); assay: as above; assay type: cell-based; details: Homo sapiens, U-937; 18 h incubation, compounds 0 - 100 µM; read-out: IC50 Cancer cells U937 (Acute myeloid leukaemia)
Procedure: as §2, §3

[7] = 72 h treatment, resazurin assay, mean ± SEM
[8] = A549, 72 h treatment, resazurin assay, mean ± SEM

| Structure (SMILES) | IC50 (HaCaT cells; [7]) [µM] | IC50 [1, 8] [µM] | IC50 [2, 7] [µM] | IC50 [3, 7] [µM] | IC50 [4] [µM] | IC50 [5] [µM] | IC50 (OPM-2 (Multiple myeloma)) [µM] | IC50 [6] [µM] | S.I. A549 (Selectivity Index) [1] | S.I. MeWo (Selectivity Index) [2] | S.I. T24 (Selectivity Index) [3] | IC50 (HaCaT cells; 72 h) [µM] | IC50 ([1]; A549, 72 h) [µM] | IC50 ([2]; 72 h) [µM] | IC50 ([3]; 72 h) [µM] |
| --- | --- | --- | --- | --- | --- | --- | --- | --- | --- | --- | --- | --- | --- | --- | --- |
| CC(=O)OCC1OC([S+](C)[O-])C(OC(C)=O)C(N=C=S)C1OC(C)=O [(SS)-16β, Methyl 2,4,6-tri-O-acetyl-3-isothiocyanato-1,3-dideoxy-1-(S)-sulfinyl-β-D-glucopyranoside] | > 100 | 109 ± 23.7 | 122 ± 20.7 | 94.2 ± 13.2 | 36.9 | 128 | 64.9 | ~51.2 |  |  |  |  |  |  |  |
| CC(=O)OC[C@H]1O[C@H](Sc2ccccc2)[C@H](OC(C)=O)[C@@H](N=C=S)[C@@H]1OC(C)=O [Compound 15α, Phenyl 2,4,6-tri-O-acetyl-3-isothiocyanato-1,3-dideoxy-1-thio-α-D-glucopyranoside] | 17.7 ± 1 | 14.1 ± 2.9 | 18.8 ± 2.4 | 15.3 ± 2.1 | 4.2 | 14.4 | 10.2 | 8.3 | 1.4±0.3 | 1.0±0.1 | 1.2±0.1 |  |  |  |  |
| CCS[C@H]1O[C@H](COC(C)=O)[C@@H](OC(C)=O)[C@H](N=C=S)[C@H]1OC(C)=O [Compound 14α, Ethyl 2,4,6-tri-O-acetyl-3-isothiocyanato-1,3-dideoxy-1-thio-α-D-glucopyranoside] | 51.3 ± 1.8 | 40.6 ± 9 | 46.4 ± 7.6 | 40.7 ± 6.9 | 9.7 | 12.5 | 17 | 25.1 | 1.5±0.3 | 1.2±0.2 | 1.4±0.2 |  |  |  |  |
| CCS(=O)(=O)[C@H]1O[C@H](COC(C)=O)[C@@H](OC(C)=O)[C@H](N=C=S)[C@H]1OC(C)=O [Compound 20α, Ethyl 2,4,6-tri-O-acetyl-3-isothiocyanato-1,3-dideoxy-1-sulfonyl-α-D-glucopyranose] |  |  |  |  | 19.9 | 30.3 | 71.9 | 74 | 2.1±0.1 | 1.9±0.2 | 2.9±0.8 | > 100 | 92.4 ± 25.7 | 95.3 ± 44.8 | 55.8 ± 6 |
| CC[S@+]([O-])[C@@H]1O[C@H](COC(C)=O)[C@@H](OC(C)=O)[C@H](N=C=S)[C@H]1OC(C)=O [(SS)-17β, Ethyl 2,4,6-tri-O-acetyl-3-isotiocianato-1,3-dideoxy-1[(S)-sulfinyl]-β-D-glucopyranose] | 85.2 ± 12.7 | 56.4 ± 6.6 | 51.5 ± 7.9 | 42.3 ± 3.2 | ~25.3 | 89.5 | 52.4 | 45.6 | 1.5±0.1 | 1.7±0.0 | 2.0±0.2 |  |  |  |  |
| CC(=O)OC[C@H]1O[C@H]([S@+]([O-])c2ccccc2)[C@H](OC(C)=O)[C@@H](N=C=S)[C@@H]1OC(C)=O [(RS)-18α, Phenyl 2,4,6-tri-O-acetyl-3-isothiocyanato-1,3-dideoxy-1[(R)-sulfinyl]-α-D-glucopyranose] | 51 ± 17.6 | 55.7 ± 8.4 | 55.3 ± 7.6 | 48.6 ± 8.6 | 7.4 | 46.3 | 19.6 | ~47.3 | 1.1±0.4 | 1.0±0.4 | 1.3±0.5 |  |  |  |  |
| CC(=O)OC[C@H]1O[C@@H](S(=O)(=O)c2ccccc2)[C@H](OC(C)=O)[C@@H](N=C=S)[C@@H]1OC(C)=O [Compound 21β, Phenyl 2,4,6-tri-O-acetyl-3-isothiocyanato-1,3-dideoxy-1-sulfonyl-β-D-glucopyranose] |  |  |  |  | 13.1 | 24.9 | 19.7 | ~48.3 | 1.7±0.4 | 1.5±0.3 | 1.9±0.4 | 55.7 ± 2.4 | 37.5 ± 8.6 | 43.5 ± 9.4 | 36.4 ± 9.3 |
| CCS(=O)(=O)[C@@H]1O[C@H](COC(C)=O)[C@@H](OC(C)=O)[C@H](N=C=S)[C@H]1OC(C)=O [Compound 20β, Ethyl 2,4,6-tri-O-acetyl-3-isothiocyanato-1,3-dideoxy-1-sulfonyl-β-D-glucopyranose] |  |  |  |  | 19.8 | 45.1 | 37.2 | 34.7 | 1.9±0.3 | 1.6±0.3 | 2.1±0.2 | 84.9 ± 15.2 | 47.9 ± 10 | 53.6 ± 7.4 | 39.3 ± 3.7 |
| CC(=O)OC[C@H]1O[C@@H]([S@@+]([O-])c2ccccc2)[C@H](OC(C)=O)[C@@H](N=C=S)[C@@H]1OC(C)=O [(SS)-18β, Phenyl 2,4,6-tri-O-acetyl-3-isotiocianato-1,3-dideoxy-1[(S)-sulfinyl]-β-D-glucopyranose] | 24.2 ± 3.9 | 16.8 ± 2.9 | 16 ± 2.6 | 12.9 ± 3 | ~6.6 | 20 | 16.6 | ~43.3 | 1.5±0.1 | 1.5±0.1 | 2.0±0.3 |  |  |  |  |
